Experimental data as given in patent publication US20130267594A1, “PROLYL HYDROXYLASE INHIBITORS AS RADIATION MITIGATORS AND RADIATION PROTECTORS” (priority 2010, published 2013).

Assays:
KDM4D = biological target: T1, KDM4D (Homo sapiens, UniProt Q6B0I6); experiment: KDM4D demethylation of H3K9me3 in transfected cells, immunofluorescent staining (FIG. 2); type: cell-based
T1 construct: expressed in transfected cells
T1 sequence (Q6B0I6 1-523): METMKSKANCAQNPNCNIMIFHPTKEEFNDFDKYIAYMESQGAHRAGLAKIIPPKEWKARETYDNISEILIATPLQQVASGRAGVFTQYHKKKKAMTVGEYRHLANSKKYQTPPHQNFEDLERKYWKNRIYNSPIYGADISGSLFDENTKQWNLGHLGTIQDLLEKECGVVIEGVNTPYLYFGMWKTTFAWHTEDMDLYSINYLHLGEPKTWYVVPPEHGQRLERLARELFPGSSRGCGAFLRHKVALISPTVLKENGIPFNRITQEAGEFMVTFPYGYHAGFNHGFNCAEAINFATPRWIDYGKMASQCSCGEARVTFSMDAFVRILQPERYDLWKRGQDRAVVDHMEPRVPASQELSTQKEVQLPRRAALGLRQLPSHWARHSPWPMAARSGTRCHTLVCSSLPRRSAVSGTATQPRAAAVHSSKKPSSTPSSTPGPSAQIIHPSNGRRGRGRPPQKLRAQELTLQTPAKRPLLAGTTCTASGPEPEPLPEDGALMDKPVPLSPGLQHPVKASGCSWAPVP
Procedure: HeLa cells were transiently transfected with either vector or KDM4D, followed by incubation with either solvent (PBS, control) or DMOG (100 μM) and then visualized by fluorescent microscopy.
Immunofluorescence: Cells (on cover slides) were fixed in phosphate-buffered saline (PBS) containing 2% paraformaldehyde. Cells were permeabilized in 0.2% Triton X-100 in PBS for 5mins, and then blocked in fetal bovine serum for 20 min, Primary antibodies were prepared in 10% fetal bovine serum supplemented with 0.2% saponin. After a 1 h incubation with primary antibody, cells were washed three times with 0.2% Tween-20 and incubated for 1 h in secondary antibody (conjugated to either Texas Red or FITC; Santa Cruz Biotechnology, CA). Slides were mounted with Fluoromount-G (Southern Biotech, AL). […]
KDMs utilize an Fe-oxo intermediate to form an unstable hydroxy-methyl intermediate, which spontaneously releases formaldehyde, leading to removal of a single methyl group. […] In FIG. 2B, Murine Embryonic Fibroblasts (MEFs) were transfected with empty vector or KDM4D, which specifically demethylates H3K9me3, and the levels of chromatin associated H3K9me3 measured by immunofluorescent staining using an anti-H3K9me3 antibody. In untreated cells, high levels of H3K9me3 were detected, and transient expression of the H3K9me3 demethylase KDM4D essentially demethylated the entire nuclear H3K9me3 signal. […]

MEF cells = experiment: Clonogenic cell survival assay after ionizing radiation, MEFs; type: cell-based, mouse; parameters: cell survival after exposure to IR (clonogenic): dose or concentration left out as unconfirmed
Suv39h1/2−/− cells = experiment: Clonogenic cell survival assay after ionizing radiation, Suv39h1/Suv39h2 double knockout MEFs; type: cell-based, mouse
[1] = system: MEFs expressing shRNA targeting Hif1α; experiment: Clonogenic cell survival assay after ionizing radiation, MEFs with Hif1α silenced; type: cell-based, mouse; details: DMOG 1 mM, FIG. 11A
[2] = Toxicity of DMOG alone in mice; type: in vivo, mouse; details: DMOG 100 mg/kg ip
Procedure: Mice: This study was carried out in strict accordance with the recommendations in the Guide for the Care and Use of Laboratory Animals of the National Institutes of Health. The protocol was reviewed and approved by the Dana-Farber Cancer Institute's Animal Care and Use Committee (Protocol number 06-029). All efforts were made to minimize suffering. Male Balb/c mice were purchased from Taconic (NY, USA) and C57BL/6J mice were purchased from The Jackson Laboratory (ME, USA). For total body irradiation (TBI), mice were irradiated at the dose rate of 110 cGy/min using a ^137Cs source (Gammacell® 40Exactor, Best Theratronics, Ottawa, Canada). DMOG (dissolved in saline) or saline was administered IP before and after TBI. The mice were given normal water that had undergone reverse osmosis and powdered food (Purina Pico Lab Chow) after TBI. The animals were closely inspected after TBI for ill-health and the moribund animals were sacrificed according to the guidelines in our approved ACUC protocol. The Kaplan-Meier survival curves were plotted for saline-treated and DMOG-treated cohorts. The statistical analysis of the Kaplan-Meier survival curves was performed with Graph Pad Prism Version 5 using Mantel Log-rank test.
The preliminary observation on the radiation mitigating effects of DMOG in primary fibroblast cell lines prompted the inventors to initiate testing of DMOG in a murine model. […]

CHD4 = type: cell-based; details: MCF-7 cells; CoCl2 200 μM 8 hr, FIG. 8D; DMOG only stated
MTA3 [3] = type: cell-based; details: MCF-7 cells; CoCl2 200 μM 8 hr, FIG. 8E; DMOG only stated
MTA3 [4] = type: cell-based; details: MCF7 cells; CoCl2 200 μM time course, FIG. 8F; DMOG only stated
Suv39h1 = type: cell-based
Hif1α = type: cell-based, mouse

Compound: COC(=O)CNC(=O)C(=O)OC [DMOG, dimethyloxalylglycine]
- ability of KDM4D to demethylate H3K9me3 (KDM4D; cells expressing KDM4D, DMOG 100 μM, anti-H3K9me3 staining): inhibited the ability of KDM4D to demethylate H3K9me3
- level of expression of the KDM4D enzyme (KDM4D; control experiments to FIG. 2): did not alter the level of expression of the KDM4D enzyme
- cell survival after exposure to IR (clonogenic) (MEF cells; MEF cells incubated with DMOG then irradiated, FIG. 3): increased cell survival
- radioresistance (clonogenic survival) (MEF cells; MEFs expressing a non-specific shRNA, DMOG 1 mM, FIG. 11A): increased radioresistance
- radiosensitivity (clonogenic survival) (MEF cells; MEFs, DMOG 1 mM, 1 hr before IR to 24 hr after, FIG. 7C): significant decrease in radiosensitivity
- protection when added after irradiation (radiation mitigation, clonogenic survival) (MEF cells; MEFs, DMOG 48-72 hours post-irradiation, FIG. 5): significant protection
- radioresistance (clonogenic survival) (MEF cells; Suv39h1/h2+/+ cells, FIG. 4B): small, but significant increase in radioresistance
- protective effect (clonogenic survival) in SuvDKO MEFs versus normal MEFs (Suv39h1/2−/− cells; MEF-SuvDKO, DMOG 1 mM, FIG. 11C): significantly reduced
- radioprotective effect (clonogenic survival) (Suv39h1/2−/− cells; Suv39h1/h2−/− cells compared to +/+, FIG. 4B): much larger radioprotective effects
- radioresistance (clonogenic survival) when Hif1α was silenced [1]: this effect was lost
- toxicity of DMOG alone in mice ([2]; no irradiation): does not cause any toxicity
- mice surviving at 30 days, DMOG alone ([2]; no irradiation (data not shown)): 100%
- CHD4 mRNA levels (CHD4): increased
- MTA3 mRNA levels (MTA3 [3]): increased
- MTA3 protein levels (MTA3 [4]): increased
- DMOG dependent induction of Suv39h1 in cells lacking Hif1α (Suv39h1): abolished
- expression of the Suv39h1 methyltransferase (Suv39h1): increased expression of the Suv39h1 methyltransferase
- ability to increase Hif1α levels in SuvDKO MEFs (Hif1α): not altered
